According to patent US20190111016A1, “METHODS OF TREATING MUSCLE AND LIVER DISORDERS” (The Regents of the University of California, priority 2016, published 2019):
Counter-ions that a name gives are not always drawn.

Legend:
[1] = tested on: MS patients; assay: mtDNA copy number (MT-TL1/B2M) by qPCR in PBMCs of MS patients before and after DMF treatment; format: in vivo, human; conditions: 3 months DMF treatment
Description: (§1) The local Ethics Committee of the University Federico II of Naples, approved the study. Patients were recruited from the Multiple Sclerosis Center of the Federico II University of Naples. All patients gave written informed consent before any activity linked to the study was started. Healthy controls were recruited at the clinic through students and site personnel. The study included 12 MS patients and 11 healthy individuals. Samples were obtained on the day before and after 3 months of continuous DMF treatment. Whole blood was collected in EDTA containing Leucosep® tubes (Greiner bio-one, Frickenhausen, Germany) and frozen at −80° C. until analysis. PBMCs were isolated from 30 mL of EDTA anticoagulated whole blood for RNA extraction.
(§2) cDNA was synthesized from mRNA with iScript cDNA Synthesis Kit (Bio-Rad Laboratories, Hercules, Calif., USA) per manufacturer's instruction in a C1000 Touch Thermal Cycler (Bio-Rad Laboratories, Hercules, Calif., USA). A SensiFAST SYBR No-ROX Kit (Bioline, Taunton, Mass., USA) was used to perform qPCR on the synthesized cDNA in a Roche Lightcycler 480 (Roche Diagnostics, Indianapolis, Ind., USA). The second derivative of the amplification curve was used to determine the cycle threshold, and the data were analyzed by a delta delta CT calculation.
DMF is a FDA approved drug, currently being used to treat adult patients with relapsing form of MS. […]

[2] = tested on: HCAR2; assay: DMF treatment of HCAR2 siRNA knockdown human fibroblasts, qPCR; format: cell-based; conditions: HCAR2 siRNA 48 hours, then DMF 48 hours
Protocol: (§3) Fibroblast cells were seeded in six-well plates at 0.2×10^6 cells per well and transfected with negative control siRNA (cat. 12935300, Thermo-Fisher, Waltham, Mass., USA), pooled Nrf2 siRNA (cat. HSS107130, HSS181505, HSS181506, Thermo-Fisher, Waltham, Mass., USA) or pooled HCAR2 siRNA (cat. L-006688-02-0005, Dharmacon, Lafayette, Colo., USA) using Lipofectamine RNAiMAX following manufacturer's instruction. After a 48-hour incubation, subsequent drug treatment was conducted with the cells.
as §2, with “A SensiFAST SYBR No-ROX Kit (Bioline, Taunton, Mass., USA) was used to perform qPCR on the synthesized cDNA in a Roche Lightcycler 480 (Roche Diagnostics, Indianapolis, Ind., USA).” left out
(§4) DMF is known to mediate antioxidant cellular defense by Nrf2 activation, and it suppresses inflammatory signaling by binding to and activating HCAR2 (11, 15). To further understand the Nrf2 and HCAR2 dependent effects of DMF on mitochondrial biogenesis, we analyzed changes in mitochondrial proliferation in Nrf2 siRNA knockdown and HCAR2 siRNA knockdown fibroblasts.

[3] = tested on: healthy human fibroblast cell line AG09429; assay: qPCR of TFAM and mitochondrial complex subunit mRNA in DMF-treated human fibroblasts; format: cell-based; conditions: for average induction of all the mitochondrial complexes (subunit mRNA) compared to vehicle / expression of mitochondrial biogenesis marker TFAM compared to vehicle control: 48 hours
Protocol: (§5) The healthy human fibroblast cell line AG09429 (Coriell Institute, Camden, N.J., USA) was maintained at 37° C. in a humidified atmosphere with 5% CO2. DMEM (Corning, Inc., Corning, N.Y., USA) supplemented with 10% fetal bovine serum (JR-Scientific, Woodland, Calif., USA), 1× Penicillin-Streptomycin Solution (Corning, Inc., Corning, N.Y., USA) was used as growth media. Media was changed every two days.
(§6) The human fibroblasts were plated in a 12-well format at 0.1×10^6 cells per well. The cells were incubated with 0.1% DMSO as vehicle control or 3-30 μM of dimethyl fumarate (Sigma-Aldrich, St. Louis, Mo., USA) dissolved in DMSO. Total RNA and DNA were extracted following a 48-hour incubation period.
(§7) Total RNA was extracted from human fibroblast cells and PBMCs from whole blood using RNeasy plus mini kit (Qiagen, Valencia, Calif.) and RIboPure RNA Purification Kit (ThermoFisher Scientific, Waltham, Mass., USA), respectively following manufacturers instruction. RNA quantity and quality was measured by a NanoDrop 2000c Spectrophotometer (Thermo Scientific, Waltham, Mass., USA).
as §2
To elucidate whether increased mitochondrial proliferation affects the abundance of the ETC mitochondrial complexes, qPCR analysis was performed to quantify the mRNA expression of numerous complex subunits: complex 1 subunits MT-ND2 and MT-ND6, complex 2 subunits SDHA and SDHB, […], and complex 5 subunits ATP5B and MT-ATP6 [Table 1]. […] Taken together, human fibroblast cells increased mitochondrial biogenesis measured by mtDNA copy number, mitochondrial proliferator marker TFAM expression and mitochondrial complex expression.

[4] = tested on: Nrf2; assay: DMF treatment of Nrf2 siRNA knockdown human fibroblasts, qPCR; format: cell-based; conditions: then DMF 48 hours
Protocol: as §3, §2, §4

[5] = tested on: MS patients; assay: qPCR of mitochondrial complex subunit expression in PBMCs of MS patients before and after DMF treatment; format: in vivo, human
Description: as §1, §7, §2
DMF is a FDA approved drug, currently being used to treat adult patients with relapsing form of MS. To confirm whether DMF is contributing to mitochondrial biogenesis when given to human patients, we used qPCR to study mitochondrial DNA copy number and mitochondrial complex subunit expression in peripheral blood lymphocytes isolated from 11 MS patients at baseline and those same patients 3 months after DMF treatment, and 10 controls. We see significant increase in mitochondrial DNA copy number by 71% (p<0.0075, n=11) in MS patients' treated with DMF for 3 months compared to its own baseline [FIG. 4A].

[6] = tested on: human fibroblasts; assay: Oxygen consumption rate in DMF-treated fibroblasts by Seahorse XF Analyzer; format: cell-based; conditions: 48 hours
Protocol: Fibroblast cell lines were seeded at a density of 60,000 cells/well in 200 μL of culture medium in a 24-well seahorse tissue culture plate (Seahorse Biosciences, Billerica, Mass., USA). Following a 24-hour incubation, the media was replaced and incubated with 200 μL of 0.1% DMSO or 3 μM, 10 μM and 30 μM dimethyl fumarate in 0.1% DMSO. Prior to reading the oxygen consumption, the medium was changed to unbuffered DMEM without phenol red (Corning, Inc., Corning, N.Y., USA), 10% fetal bovine serum (JR-Scientific, Woodland, Calif., USA), […] glutamax, […] sodium pyruvate, 25 mM glucose (Invitrogen, Waltham, Mass., USA) and was adjusted to pH 7.4. Cells were pre-equilibrated for 20 min; oxygen consumption rate (OCR) and proton production rate (PPR) were recorded with the Seahorse XF-24 after sequential addition of oligomycin (1 ug/ml), FCCP (10 μM) and a combination of antimycin A (1 μM) and rotenone (1 μM) (Sigma-Aldrich, St. Louis, Mo., USA). Total protein in each well was measured and protein concentration was used to normalize the readings.
To elucidate the bioenergetic effects of DMF-dependent increases in mitochondrial copy number and mitochondrial complex expression in human fibroblasts, oxygen consumption rate (OCR) was measured. Human fibroblasts were treated with 0.1% DMSO, 3 μM, 10 μM or 30 μM DMF for 48 hours, and oxygen consumption rate (OCR) was sequentially measured in the presence of oligomycin (complex 5 inhibitor), FCCP (mitochondrial uncoupler), and rotenone/antimycin A (Complex 1/3 inhibitor) [FIG. 2A]. […] Consistent with the idea that DMF increases mitochondrial copy number and mitochondrial complex expression; the effects of DMF are nullified in the presence of oligomycin and rotenone/antimycin A, which inhibits the mitochondrial electron transport chain that is responsible for mitochondrial oxygen consumption.

[7] = tested on: C57BL/6 wild-type mice; assay: mtDNA copy number (mt-Nd1/Cftr) by qPCR in tissues of DMF-dosed mice; format: in vivo, mouse; conditions: 10 mg/kg DMF i.p. daily, two weeks
Protocol: (§8) C57BL/6 wild-type mice were housed in a vivarium maintained at 22° C.-24° C. and 40%-60% relative humidity with a 12-hour light/12-hour dark cycle. All experimental procedures were approved by the University of California Institutional Animal Care and Use Committee.
(§9) The stock dimethyl fumarate solution was made by dissolving 50 mg/ml of DMF into DMSO. Prior to injection, 0.5 mg/ml of working DMF solution (1:100 dilution) was made by diluting the stock solution into phosphate-buffered saline with 5% Tween-20 and 5% Polyethylene glycol (Sigma-Aldrich, St. Louis, Mo., USA). The mice were injected intraperitoneally every day for 14 days with 10 mg/kg of DMF.
(§10) The mice were euthanized with CO2 followed by cervical dislocation and tissues were immediately removed then flash frozen with liquid nitrogen. Samples were stored in −80° C. until utilized for experiments.
(§11) Total DNA was extracted from human fibroblast and mouse tissues using DNeasy plus mini kit and DNeasy blood & tissue kit (Qiagen, Valencia, Calif., USA), respectively, following manufacturer's instruction. DNA was quantified by a NanoDrop 2000c Spectrophotometer (Thermo Scientific, Waltham, Mass., USA).
as §2
(§12) To understand whether the DMF-dependent mitochondrial biogenesis is only applicable to the human fibroblast cells, we examined the effects of DMF on wild type C57BL/6 mice. The mice were dosed with 10 mg/kg DMF daily, and skeletal muscle, cerebellum, liver, and heart tissues were collected after two weeks of treatment We utilized qPCR to analyze, mtDNA copy number as ratio of mt-Nd1 to Cftr and mitochondrial complex expression, in these tissues.

[8] = tested on: healthy human fibroblast cell line AG09429; assay: mtDNA copy number (mtDNA/nDNA, MT-TL1/B2M) by qPCR in DMF-treated human fibroblasts; format: cell-based; conditions: 48 hours
Protocol: as §5, §6, §11, §2
Healthy human fibroblast cells were treated with 0.1% DMSO (vehicle), 3 μM, 10 μM or 30 μM DMF for 48 hours. Mitochondrial DNA (mtDNA) copy number was analyzed from total DNA isolates by measuring the ratio of mitochondrial to nuclear DNA (mtDNA/nDNA). Primers used to amplify mitochondrial DNA and nuclear DNA by qPCR were mitochondrially-encoded tRNA leucine 1 (MT-TL1) and Beta 2 microglobulin (B2M) respectively. […]

[9] = tested on: C57BL/6 wild-type mice; assay: qPCR of mitochondrial complex subunit expression in tissues of DMF-dosed mice; format: in vivo, mouse; conditions: 10 mg/kg DMF i.p. daily, two weeks
Protocol: as §8, §9, §10, §2, §12

[10] = MS patients, 3 months DMF treatment

## COC(=O)/C=C/C(=O)OC [DMF, dimethyl fumarate]
[1]
  mitochondrial DNA copy number compared to healthy control group: back to healthy control level
[1]; peripheral blood lymphocytes
  increase in mitochondrial DNA copy number compared to own baseline: 71%
[2]
  inducibility of NRF1, mtDNA copy number and mitochondrial complex 2-5 subunit gene expression, siHCAR2+DMF compared to siCTL+DMF: no significant difference
  inducibility of complex 1 subunit MT-ND2 by DMF when HCAR2 is knocked down: uninducible
[3]; 10 μM DMF
  average induction of all the mitochondrial complexes (subunit mRNA) compared to vehicle: 1.42 fold
  expression of mitochondrial biogenesis marker TFAM compared to vehicle control: increased
[3]; 30 μM DMF
  average induction of all the mitochondrial complexes (subunit mRNA) compared to vehicle: 2.65 fold
  expression of mitochondrial biogenesis marker TFAM compared to vehicle control: increased
[3]; DMF 48 hours
  expression of complex 5 subunits in response to DMF compared to other complex subunits: less increased
[4]; Nrf2 siRNA 48 hours
  expression of Nrf2, NQO1 and mtDNA copy number, siNrf2+DMF compared to siNrf2 cells: significantly increases
  induction of TFAM and NRF1 in siNrf2+DMF: no significant induction
  mitochondrial complex expression in siNrf2+DMF cells (exception: complex 4): general reduction
[4]; control siRNA 48 hours
  Nrf2, NQO1, TFAM, NRF1 and mtDNA copy number, siCNT+DMF compared to siCNT: significant induction
[5]; MS patients following 3 months DMF treatment, relative to healthy individuals
  recovery in average mitochondrial gene expression (mt-ND6, mt-CYB, mt-CO2, mt-ATP6): 88%
[5]; [10]
  increase in mt-ATP6 (complex 5) expression normalized to own baseline: 3.74 fold
  increase in mt-CO2 (complex 4) expression normalized to own baseline: 2.34 fold
  increase in mt-CYB (complex 3) expression normalized to own baseline: 2.87 fold
  increase in mt-ND6 (complex 1) expression normalized to own baseline: 3.13 fold
[6]; 3 μM DMF
  maximal OCR after FCCP injection, relative increase compared to vehicle control: 1.20 fold
[6]; 10 μM DMF
  basal OCR, relative increase compared to vehicle control: 1.59 fold
  maximal OCR after FCCP injection, relative increase compared to vehicle control: 1.35 fold
[6]; 30 μM DMF
  basal OCR, relative increase compared to vehicle control: 1.66 fold
  maximal OCR after FCCP injection, relative increase compared to vehicle control: 1.47 fold
[6]; 3, 10, 30 μM DMF
  OCR in the presence of oligomycin and rotenone/antimycin A, DMF groups vs vehicle control: not significantly different
[7]; cerebellum
  increase in mtDNA copy number: 1.29 fold
[7]; heart
  change in mtDNA copy number: no significant change
[7]; liver
  increase in mtDNA copy number: 1.34 fold
[7]; skeletal muscle
  increase in mtDNA copy number: 1.45 fold
[8]; 3 μM DMF
  change in mtDNA copy number compared to vehicle control: no changes
[8]; 10 μM DMF
  increase in mtDNA copy number compared to vehicle control: 1.51 fold
[8]; 30 μM DMF
  increase in mtDNA copy number compared to vehicle control: 1.75 fold
[9]; cerebellar tissue
  increase in mt-Atp6 (complex 5) expression: 1.82 fold
  increase in mt-Co1 (complex 4) expression: 1.92 fold
[9]; liver or heart tissues
  induction of mitochondrial complexes: more minor
[9]; skeletal muscle
  increase in mt-Atp6 (complex 5) expression: 1.77 fold
  increase in mt-Co1 (complex 4) expression: 2.38 fold
  increase in mt-Nd2 expression: 4.68 fold
